Literature values as cited in patent US20130344180A1, “WEIGHT LOSS AND SATIATION COMPOSITION” (YL HOLDINGS, INC., priority 2012, published 2013).
One block for each compound: values may come before it.

Assays:
[1] = mice and rats
[2] = test system: E1, E2, and E3 isozymes of retinaldehyde dehydrogenase (Raldh)
[3] = mice and rats; remark: listed apart in the source
cellular metabolism = conditions: by increasing cellular metabolism
prostate gland tumors = conditions: various strains of rats
PPARγ = PPARγ (Homo sapiens, UniProt P37231)
[4] = in vivo
[5] = test system: adipocyte differentiation
[6] = test system: fat cells in white adipose tissue; conditions: by increasing the expression of thermogenin

PPARγ, sequence (P37231 whole entry, species assumed): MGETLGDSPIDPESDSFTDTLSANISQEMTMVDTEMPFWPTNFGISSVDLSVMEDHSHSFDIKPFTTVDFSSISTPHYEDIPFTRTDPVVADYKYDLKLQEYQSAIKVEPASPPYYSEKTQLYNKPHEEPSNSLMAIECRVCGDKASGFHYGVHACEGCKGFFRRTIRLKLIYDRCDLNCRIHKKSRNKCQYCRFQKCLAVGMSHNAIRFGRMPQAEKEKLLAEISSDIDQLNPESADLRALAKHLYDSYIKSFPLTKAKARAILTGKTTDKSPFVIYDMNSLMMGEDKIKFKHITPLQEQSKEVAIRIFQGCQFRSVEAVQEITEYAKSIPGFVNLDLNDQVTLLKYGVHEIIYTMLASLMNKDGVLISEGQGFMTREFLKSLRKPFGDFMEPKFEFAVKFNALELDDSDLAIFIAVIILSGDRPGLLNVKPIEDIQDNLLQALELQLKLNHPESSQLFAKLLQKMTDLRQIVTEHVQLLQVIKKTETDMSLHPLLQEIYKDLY

inhibition of E1, E2, and E3 isozymes of retinaldehyde dehydrogenase (Raldh) [2]: competitively inhibits
Compound: CC(C)=CCCC(C)=CC=O [Citral, 3,7-dimethyl-2,6-octadienal]
carcinogenic potential [1]: does not possess carcinogenic potential | toxicity [3]: non-toxic | thermogenic response (cellular metabolism): provide thermogenic response | effect against prostate gland tumors (prostate gland tumors): effective

ligand of PPARγ (PPARγ): acts as a ligand
Compound: CCCC\C=C/C=C/C=C\CCCCCCCC(=O)O [punicic acid]
high-fat-diet induced obesity and insulin resistance [4]: suppression | adipocyte differentiation [5]: suppression

Compound: Fucoxanthin
fat burning within fat cells [6]: promote fat burning
